Results from patent US11026940B2, “Compositions for the mobilization, homing, expansion and differentiation of stem cells and methods of using the same” (Ampio Pharmaceuticals, Inc., priority 2013, dated 2021).
Where “and” joins values, the source holds several entries; their conditions need not be identical. Equal values may be shown once.

Columns and labels:
Type in all cases: cell-based, human
MMP13 = test: Stem cell chondrogenesis, real time PCR gene expression: MMP13; settings: for regulation, MMP13 / Mean regulation, MMP13 / ΔCp, MMP13 / 2^-ΔΔCp vs saline, MMP13 / ΔΔCp vs saline, MMP13 / Mean ΔCp, MMP13: Day 7; for regulation, MMP13 / Mean regulation, MMP13: fold regulation vs saline; for regulation, MMP13 / ΔCp, MMP13 / 2^-ΔΔCp vs saline, MMP13 / ΔΔCp vs saline, MMP13: single replicate well; for Mean regulation, MMP13 / Mean ΔCp, MMP13: triplicate wells; for ΔCp, MMP13: human bone marrow MSC, chondrogenic medium + TGF beta 3; for ΔCp, MMP13 / 2^-ΔΔCp vs saline, MMP13 / ΔΔCp vs saline, MMP13 / Mean ΔCp, MMP13: vs Actin; for Cp, MMP13 / ΔΔCp vs saline / 2^-ΔΔCp vs saline / Mean regulation / Mean ΔCp / ΔCp: Day 22; for Cp, MMP13 / ΔΔCp vs saline / 2^-ΔΔCp vs saline / Mean regulation: MMP13; for Mean regulation: vs saline; for Mean ΔCp / ΔCp: MMP13 vs GAPDH
Experimental: (§1) • Stem Cells: Bone marrow derived human mesenchymal stem cells: Passage 5 Bone marrow derived human mesenchymal stem cells (HUXMA-01001, Cyagen Biosciences, Sunnyvale Calif.) • Mesenchymal Stem Cell Chondrogenic Differentiation medium (GUXMX-90041, Cyagen Biosciences, Sunnyvale Calif.) • TheraPEAK MSCGM chemically defined Stem cell medium (190632 Lonza) • 1 mM Dexamethasone acetate and mifepristone in absolute ethanol (Sigma) • Saline or 0.9% Sodium chloride for injection ZR Flush (Excelsior Medical, Neptune N.J.) • Sterile filtered 0.6 mM sodium caprylate in saline (sigma) • Sterile filtered 3 mM NAT in saline (sigma); To prepare, heat at 60° C. for 30 minutes then sonicate for 5 minutes. • Sterile filtered 10 mM DADKP in saline • 0.2 μM syringe filters • Hepes buffered saline, Trypsin/EDTA, Trypsin neutralizing solution (Lonza reagent pack) • 182 cm2 tissue culture flasks • pipettes and sterile tips • Tissue culture hood, humidified CO2 incubator, water or bead bath • 24 well tissue culture plates • Qiagen RNeasy plus spin columns (Qiagen 74134) • Qiagen RT2 qPCR primer pairs for Collagen 2A1, MMP13, TIMP1, Aggrecan, GAPDH, and Actin B • Roche Sybr green I master mix and Invitrogen Superscript VILO master mix. • Roche 480 lightcycler
(§2) The following stock drug treatment solutions were prepared in saline for injection and warmed to 37° C. in bath: • 4 μM dexamethasone • 4 μM mifepristone • 3 mM NAT • 0.6 mM caprylate • 80 μM DADKP • Mix of 3 mM NAT, 0.6 mM caprylate, 80 μM DADKP (“Ampion” mix)
(§3) Cyagen Chondrogenic Differentiation medium was prepared by manufacturer protocols but excluding dexamethasone and TGF beta 3 supplements, and warmed to 37° C. in bath.
(§4) The treatment protocol included expanding 5 HUXMA stem cells in 182 cm^2 flasks containing 40 mls TheraPEAK™ MSCGM to 80-90% confluence. Cells were trypsinized from the flasks and a 1.0×10^7 cell suspension of HUXMA stem cells was warmed in Cyagen Chondrogenic Differentiation medium. 20 μl of warmed cell suspension was spotted in the middle of each well of a 24-well tissue culture plate (200,000 cells per spot), and incubated at 37° C. and 5% CO2 for one hour.
(§5) The plates were removed from the incubator and an additional 720 μl chondrogenic medium was added to each well. 250 μl saline, or drug solutions were added to the appropriate wells in triplicate (bringing the final drug dilution to one-quarter of the stock drug treatment solution concentrations). 10 μl of TGF beta 3 solution (supplied by Cyagen) was added to each well, and the plates were returned to the incubator.
(§6) RNA isolation and analysis was conducted for all plates as follows at days 7, 14, and 22 post treatment (with the described medium exchanges). […] Qiagen RNeasy plus lysis buffer (with 2mercaptoethanol) was added to each well and gently shaken for 10 minutes. The lysed cell suspensions from each well were transferred to Qiashredder columns and spun at 14,000 rpm for 2 minutes. RNA isolation proceeded by RNeasy™ plus manufacturer's protocol. RNA was eluted from the Qiagen columns using 25 μl RNase free water.
(§7) cDNA synthesis and real time PCR was conducted as follows. First strand synthesis of cDNA from all samples was performed in 20 μl total volume using 10 μl isolated RNA. All cDNA reactions were then diluted with 30 μl nuclease free water. Real time PCR was then performed using 5 μl diluted cDNA, Roche Syber green master mix, and Qiagen RT^2 gPCR™ primer pairs in 20 μl total reaction volume. Relative gene expression was determined by delta deta Ct method.

Aggrecan = test: Stem cell chondrogenesis, real time PCR gene expression: Aggrecan; settings: Day 22; for Mean ΔCp / ΔCp: Aggrecan vs Actin; for Cp Agg / Mean regulation: Aggrecan; for Mean regulation: vs saline
Experimental: as §1, §2, §3, §4, §5, §6, §7

TIMP1 = test: Stem cell chondrogenesis, real time PCR gene expression: TIMP1; settings: Day 22; for Cp TIMP1 / 2-^ΔΔCp vs saline / Mean regulation / regulation: TIMP1; for Mean regulation / regulation: vs saline; for Mean ΔCp / ΔCp: TIMP1 vs Actin
Experimental: as §1, §2, §3, §4, §5, §6, §7

SOX9 = test: Stem cell chondrogenesis, real time PCR gene expression: SOX9; settings: Day 14; for regulation, SOX9 / Mean regulation, SOX9: fold regulation vs saline; for regulation, SOX9 / ΔCp, SOX9 / 2^-ΔΔCp vs saline, SOX9 / ΔΔCp vs saline, SOX9: single replicate well; for Mean regulation, SOX9 / Mean ΔCp, SOX9: triplicate wells; for ΔCp, SOX9: human bone marrow MSC, chondrogenic medium + TGF beta 3; for ΔCp, SOX9 / 2^-ΔΔCp vs saline, SOX9 / ΔΔCp vs saline, SOX9 / Mean ΔCp, SOX9: vs Actin
Experimental: The treatment protocol included expanding 5 HUXMA stem cells in 182 cm^2 flasks containing 40 […] to 80-90% confluence. Cells were trypsinized from the flasks and a 1.0×10^7 cell suspension of HUXMA stem cells was warmed in Cyagen Chondrogenic Differentiation medium. 20 μl of warmed cell suspension was spotted in the middle of each well of a 24-well tissue culture plate (200,000 cells per spot), and incubated at 37° C. and 5% CO2 for one hour. […] Medium exchanges were performed every 3-4 days by aspirating the medium from the wells and replacing with fresh chondrogenic medium, diluted stocks, and TGF beta 3, as described above. […] Medium from the wells was removed and saved for further protein analysis. Qiagen RNeasy plus lysis buffer (with 2mercaptoethanol) was added to each well and gently shaken for 10 minutes. The lysed cell suspensions from each well were transferred to Qiashredder columns and spun at 14,000 rpm for 2 minutes. RNA isolation proceeded by RNeasyTM plus manufacturer's protocol. RNA was eluted from the Qiagen columns using 25 μl RNase free water. cDNA synthesis and real time PCR was conducted as follows. First strand synthesis of cDNA from all samples was performed in 20 μl total volume using 10 μl isolated RNA. All cDNA reactions were then diluted with 30 μl nuclease free water. Real time PCR was then performed using 5 μl diluted cDNA, Roche Syber green master mix, and Qiagen RT^2 gPCRTM primer pairs in 20 μl total reaction volume.

Collagen 2A1 = test: Stem cell chondrogenesis, real time PCR gene expression: Collagen 2A1; settings: for Cp Coll / Mean regulation: Collagen 2A1; for Cp Coll / Mean regulation / Mean ΔCp / ΔCp: Day 22; for Mean regulation: vs saline; for Mean ΔCp / ΔCp: Collagen 2A1 vs GAPDH; for regulation, Collagen 2A1 / Mean regulation, Collagen 2A1: fold regulation vs saline; for regulation, Collagen 2A1 / ΔCp, Collagen 2A1 / 2^-ΔΔCp vs saline, Collagen 2A1 / ΔΔCp vs saline, Collagen 2A1: single replicate well; for Mean regulation, Collagen 2A1 / Mean ΔCp, Collagen 2A1: triplicate wells; for ΔCp, Collagen 2A1: human bone marrow MSC, chondrogenic medium + TGF beta 3; for ΔCp, Collagen 2A1 / 2^-ΔΔCp vs saline, Collagen 2A1 / ΔΔCp vs saline, Collagen 2A1 / Mean ΔCp, Collagen 2A1: vs Actin

SMILES: CC#C[C@]1(O)CC[C@H]2[C@@H]3CCC4=CC(=O)CCC4=C3[C@@H](c3ccc(N(C)C)cc3)C[C@@]21C [Mifepristone, mifepristone]
- regulation, MMP13 (MMP13): −1.49 and −1.34
- Mean regulation, MMP13 (MMP13): −2.47
- ΔCp, MMP13 (MMP13): 5.21 and 6.83 and 5.06
- 2^-ΔΔCp vs saline, MMP13 (MMP13): 0.6721 and 0.2186 and 0.7457
- ΔΔCp vs saline, MMP13 (MMP13): 0.573 and 2.193 and 0.423
- Mean ΔCp, MMP13 (MMP13): 5.7
- Cp, MMP13 (MMP13; Table 12): 20.98 and 21.32 and 21.37
- ΔΔCp vs saline (MMP13; Table 12): 0.517 and 0.867 and 0.537
- 2^-ΔΔCp vs saline (MMP13; Table 16): 0.699 and 0.5484 and 0.6894
- Cp, MMP13 (MMP13; Table 16): 20.98 and 21.32 and 21.37
- ΔΔCp vs saline (MMP13; Table 16): 0.517 and 0.867 and 0.537
- Mean regulation (MMP13; Table 12): −1.57
- Mean regulation (MMP13; Table 16): −1.57
- Mean ΔCp (MMP13; Table 12): 3.633
- ΔCp (MMP13; Table 12): 3.51 and 3.86 and 3.53
- Mean ΔCp (MMP13; Table 16): 3.633
- ΔCp (MMP13; Table 16): 3.51 and 3.86 and 3.53
- Mean ΔCp (Aggrecan; Table 12): 9.247
- ΔCp (Aggrecan; Table 12): 10.29 and 8.98 and 8.47
- Mean ΔCp (Aggrecan; Table 16): 9.247
- ΔCp (Aggrecan; Table 16): 10.29 and 8.98 and 8.47
- Cp Agg (Aggrecan; Table 12): 25.97 and 24.4 and 23.94
- Cp Agg (Aggrecan; Table 16): 25.97 and 24.4 and 23.94
- Mean regulation (Aggrecan; Table 12): 1.55
- Mean regulation (Aggrecan; Table 16): 1.55
- Cp TIMP1 (TIMP1; Table 12): 19.69 and 19.8 and 19.76
- 2-^ΔΔCp vs saline (TIMP1; Table 16): 0.6958 and 0.8448 and 0.6537
- Cp TIMP1 (TIMP1; Table 16): 19.76 and 19.69 and 19.8
- Mean regulation (TIMP1; Table 12): −1.38
- Mean ΔCp (TIMP1; Table 12): 4.227
- ΔCp (TIMP1; Table 12): 4.01 and 4.38 and 4.29
- Mean ΔCp (TIMP1; Table 16): 4.227
- ΔCp (TIMP1; Table 16): 4.29 and 4.01 and 4.38
- regulation, SOX9 (SOX9): 1.24 and 1.17 and 1.16
- Mean regulation, SOX9 (SOX9): 1.19
- ΔCp, SOX9 (SOX9): 6.87 and 6.95 and 6.96
- 2^-ΔΔCp vs saline, SOX9 (SOX9): 1.2397 and 1.1728 and 1.1647
- ΔΔCp vs saline, SOX9 (SOX9): −0.31 and −0.23 and −0.22
- Mean ΔCp, SOX9 (SOX9): 6.927
- Cp Coll (Collagen 2A1; Table 12): 25.99 and 27.6 and 26.84
- Cp Coll (Collagen 2A1; Table 16): 25.99 and 27.6 and 26.84
- Mean regulation (Collagen 2A1; Table 12): 16.82
- Mean regulation (Collagen 2A1; Table 16): 16.82
- Mean ΔCp (Collagen 2A1; Table 12): 9.22
- ΔCp (Collagen 2A1; Table 12): 8.52 and 10.14 and 9
- Mean ΔCp (Collagen 2A1; Table 16): 9.22
- ΔCp (Collagen 2A1; Table 16): 8.52 and 10.14 and 9
- regulation, Collagen 2A1 (Collagen 2A1; Day 7): −1.12 and −3.11 and −1.23
- Mean regulation, Collagen 2A1 (Collagen 2A1; Day 7): −1.82
- ΔCp, Collagen 2A1 (Collagen 2A1; Day 7): 6.9 and 8.37 and 7.03
- 2^-ΔΔCp vs saline, Collagen 2A1 (Collagen 2A1; Day 7): 0.8909 and 0.3216 and 0.8141
- ΔΔCp vs saline, Collagen 2A1 (Collagen 2A1; Day 7): 0.167 and 1.637 and 0.297
- Mean ΔCp, Collagen 2A1 (Collagen 2A1; Day 7): 7.433
- regulation, Collagen 2A1 (Collagen 2A1; Day 14): 1.21 and 1.07 and 1.57
- Mean regulation, Collagen 2A1 (Collagen 2A1; Day 14): 1.28
- ΔCp, Collagen 2A1 (Collagen 2A1; Day 14): 10.78 and 10.96 and 10.41
- 2^-ΔΔCp vs saline, Collagen 2A1 (Collagen 2A1; Day 14): 1.2114 and 1.0693 and 1.5655
- ΔΔCp vs saline, Collagen 2A1 (Collagen 2A1; Day 14): −0.28 and −0.1 and −0.65
- Mean ΔCp, Collagen 2A1 (Collagen 2A1; Day 14): 10.72

SMILES: CC(=O)N[C@@H](Cc1c[nH]c2ccccc12)C(=O)O [NAT, N-acetyl-tryptophan]
- regulation, MMP13 (MMP13): −1.43 and −1.81 and −2.45
- Mean regulation, MMP13 (MMP13): −1.89
- ΔCp, MMP13 (MMP13): 5.15 and 5.49 and 5.93
- 2^-ΔΔCp vs saline, MMP13 (MMP13): 0.7006 and 0.5535 and 0.408
- ΔΔCp vs saline, MMP13 (MMP13): 0.513 and 0.853 and 1.293
- Mean ΔCp, MMP13 (MMP13): 5.523
- Cp, MMP13 (MMP13; Table 12): 22.68 and 21.71 and 21.65
- 2^-ΔΔCp vs saline (MMP13; Table 16): 0.8487 and 1.0305 and 1.0093
- Cp, MMP13 (MMP13; Table 16): 22.68 and 21.71 and 21.65
- Mean regulation (MMP13; Table 12): 0.29
- Mean regulation (MMP13; Table 16): 0.29
- Mean ΔCp (MMP13; Table 12): 3.053
- ΔCp (MMP13; Table 12): 3.23 and 2.95 and 2.98
- Mean ΔCp (MMP13; Table 16): 3.053
- ΔCp (MMP13; Table 16): 3.23 and 2.95 and 2.98
- Mean ΔCp (Aggrecan; Table 12): 7.1
- ΔCp (Aggrecan; Table 12): 8.24 and 5.62 and 7.44
- Mean ΔCp (Aggrecan; Table 16): 7.1
- ΔCp (Aggrecan; Table 16): 8.24 and 5.62 and 7.44
- Cp Agg (Aggrecan; Table 12): 25.43 and 23.3 and 24.4
- Cp Agg (Aggrecan; Table 16): 25.43 and 23.3 and 24.4
- Mean regulation (Aggrecan; Table 12): 11.66
- Mean regulation (Aggrecan; Table 16): 11.66
- Cp TIMP1 (TIMP1; Table 12): 20.59 and 21.28 and 20.57
- 2-^ΔΔCp vs saline (TIMP1; Table 16): 1.2894 and 1.1225 and 1.1147
- Cp TIMP1 (TIMP1; Table 16): 20.59 and 21.28 and 20.57
- Mean regulation (TIMP1; Table 12): 1.18
- regulation (TIMP1; Table 12): 1.29 and 1.12 and 1.11
- regulation (TIMP1; Table 16): 1.29 and 1.12 and 1.11
- Mean ΔCp (TIMP1; Table 12): 3.537
- ΔCp (TIMP1; Table 12): 3.4 and 3.6 and 3.61
- Mean ΔCp (TIMP1; Table 16): 3.537
- ΔCp (TIMP1; Table 16): 3.4 and 3.6 and 3.61
- regulation, SOX9 (SOX9): −2.30 and 2.11 and 2.04
- Mean regulation, SOX9 (SOX9): 0.62
- ΔCp, SOX9 (SOX9): 8.38 and 6.1 and 6.15
- 2^-ΔΔCp vs saline, SOX9 (SOX9): 0.4353 and 2.114 and 2.042
- ΔΔCp vs saline, SOX9 (SOX9): 1.2 and −1.08 and −1.03
- Mean ΔCp, SOX9 (SOX9): 6.877
- Cp Coll (Collagen 2A1; Table 12): 24.2 and 23.63 and 24.67
- Cp Coll (Collagen 2A1; Table 16): 24.2 and 23.63 and 24.67
- Mean regulation (Collagen 2A1; Table 12): 262.94
- Mean regulation (Collagen 2A1; Table 16): 262.94
- Mean ΔCp (Collagen 2A1; Table 12): 5.207
- ΔCp (Collagen 2A1; Table 12): 4.75 and 4.87 and 6
- Mean ΔCp (Collagen 2A1; Table 16): 5.207
- ΔCp (Collagen 2A1; Table 16): 4.75 and 4.87 and 6
- regulation, Collagen 2A1 (Collagen 2A1; Day 7): −1.40 and 1.01 and −1.43
- Mean regulation, Collagen 2A1 (Collagen 2A1; Day 7): −0.61
- ΔCp, Collagen 2A1 (Collagen 2A1; Day 7): 7.22 and 6.72 and 7.25
- 2^-ΔΔCp vs saline, Collagen 2A1 (Collagen 2A1; Day 7): 0.7137 and 1.0093 and 0.699
- ΔΔCp vs saline, Collagen 2A1 (Collagen 2A1; Day 7): 0.487 and −0.01 and 0.517
- Mean ΔCp, Collagen 2A1 (Collagen 2A1; Day 7): 7.063
- regulation, Collagen 2A1 (Collagen 2A1; Day 14): −3.42 and 7.09 and 7.76
- Mean regulation, Collagen 2A1 (Collagen 2A1; Day 14): 3.81
- ΔCp, Collagen 2A1 (Collagen 2A1; Day 14): 12.83 and 8.23 and 8.1
- 2^-ΔΔCp vs saline, Collagen 2A1 (Collagen 2A1; Day 14): 0.2925 and 7.0943 and 7.7633
- ΔΔCp vs saline, Collagen 2A1 (Collagen 2A1; Day 14): 1.773 and −2.83 and −2.96
- Mean ΔCp, Collagen 2A1 (Collagen 2A1; Day 14): 9.72
